Reference: ChEMBL document CHEMBL1140148, “Structure-activity studies on a series of a 2-aminopyrimidine-containing histamine H4 receptor ligands” (J Med Chem, 2008)

Tests used:
[1] = test system: Brain; assay: Drug level in rat brain assessed as metabolism to 4-(2-amino-6-(piperazin-1-yl)pyrimidin-4-yl)benzonitrile at 30 umol/kg, ip; format: ADME, organism-based; settings: in vivo
[2] = molecular target: T1, Histamine H4 receptor (Rattus norvegicus, UniProt Q91ZY1); assay: (§1) Agonist activity at rat histamine H4 receptor expressed in HEK293 cells coexpressing Gqi5 protein assessed as calcium flux by FLIPR assay; format: functional, cell-based
[3] = molecular target: Histamine H4 receptor (Rattus norvegicus) (UniProt Q91ZY1); assay: Agonist activity at rat histamine H4 receptor expressed in HEK293 cells coexpressing Gqi5 protein assessed as calcium flux by FLIPR assay relative to histamine; format: functional, cell-based
[4] = molecular target: Histamine H4 receptor (Mus musculus, UniProt Q91ZY2); assay: Agonist activity at mouse histamine H4 receptor expressed in HEK293 cells coexpressing Gqi5 protein assessed as calcium flux by FLIPR assay; format: functional, cell-based
[5] = molecular target: T2, Histamine H4 receptor (Homo sapiens, UniProt Q9H3N8); assay: Displacement of [3H]histamine from human histamine H4 receptor expressed in HEK293 cells; format: cell-based
[6] = molecular target: T1, Histamine H4 receptor; assay: Displacement of [3H]histamine from rat histamine H4 receptor expressed in HEK293 cells; format: cell-based
[7] = molecular target: Histamine H3 receptor (Homo sapiens, UniProt Q9Y5N1); assay: Binding affinity to human histamine H3 receptor
[8] = molecular target: Histamine H3 receptor (Rattus norvegicus, UniProt Q9QYN8); assay: Binding affinity to rat histamine H3 receptor
[9] = molecular target: T2, Histamine H4 receptor; settings: HEK293
[10] = molecular target: T2, Histamine H4 receptor; assay: Agonist activity at human histamine H4 receptor expressed in HEK293 cells coexpressing Gqi5 protein assessed as calcium flux by FLIPR assay relative to histamine; format: functional, cell-based
[11] = molecular target: T2, Histamine H4 receptor; assay: Agonist activity at human histamine H4 receptor expressed in HEK293 cells coexpressing Gqi5 protein assessed as calcium flux by FLIPR assay; format: functional, cell-based
[12] = molecular target: Histamine H4 receptor (Rattus norvegicus) (UniProt Q91ZY1); settings: HEK293
[13] = molecular target: Histamine H4 receptor (Rattus norvegicus) (UniProt Q91ZY1); assay: as §1; format: functional, cell-based

Sequence of Histamine H4 receptor (Rattus norvegicus) (Q91ZY1 whole entry): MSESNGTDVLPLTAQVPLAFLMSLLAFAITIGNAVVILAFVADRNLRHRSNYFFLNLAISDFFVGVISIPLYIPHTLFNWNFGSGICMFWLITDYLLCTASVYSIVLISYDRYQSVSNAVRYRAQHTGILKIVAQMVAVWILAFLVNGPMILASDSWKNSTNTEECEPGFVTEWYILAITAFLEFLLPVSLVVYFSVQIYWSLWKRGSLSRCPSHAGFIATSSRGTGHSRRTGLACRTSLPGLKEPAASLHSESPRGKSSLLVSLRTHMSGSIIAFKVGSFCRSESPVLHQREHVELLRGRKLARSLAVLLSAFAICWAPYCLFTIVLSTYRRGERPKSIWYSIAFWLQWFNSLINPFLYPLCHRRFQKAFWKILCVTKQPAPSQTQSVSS
T1 sequence (Q91ZY1 whole entry): as above
Sequence of Histamine H3 receptor (Homo sapiens, UniProt Q9Y5N1) (Q9Y5N1 whole entry): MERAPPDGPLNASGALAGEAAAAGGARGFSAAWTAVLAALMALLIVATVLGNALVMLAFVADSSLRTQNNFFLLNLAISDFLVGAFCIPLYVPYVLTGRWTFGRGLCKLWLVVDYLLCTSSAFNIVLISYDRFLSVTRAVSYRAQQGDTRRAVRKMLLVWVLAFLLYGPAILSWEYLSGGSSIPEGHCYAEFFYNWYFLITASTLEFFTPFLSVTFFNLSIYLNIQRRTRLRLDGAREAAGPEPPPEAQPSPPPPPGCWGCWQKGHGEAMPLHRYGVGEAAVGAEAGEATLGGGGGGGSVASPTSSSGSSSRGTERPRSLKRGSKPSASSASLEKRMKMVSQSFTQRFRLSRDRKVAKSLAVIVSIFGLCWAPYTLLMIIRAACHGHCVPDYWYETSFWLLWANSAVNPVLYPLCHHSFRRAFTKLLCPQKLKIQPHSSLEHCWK
Sequence of Histamine H4 receptor (Mus musculus, UniProt Q91ZY2) (Q91ZY2 whole entry): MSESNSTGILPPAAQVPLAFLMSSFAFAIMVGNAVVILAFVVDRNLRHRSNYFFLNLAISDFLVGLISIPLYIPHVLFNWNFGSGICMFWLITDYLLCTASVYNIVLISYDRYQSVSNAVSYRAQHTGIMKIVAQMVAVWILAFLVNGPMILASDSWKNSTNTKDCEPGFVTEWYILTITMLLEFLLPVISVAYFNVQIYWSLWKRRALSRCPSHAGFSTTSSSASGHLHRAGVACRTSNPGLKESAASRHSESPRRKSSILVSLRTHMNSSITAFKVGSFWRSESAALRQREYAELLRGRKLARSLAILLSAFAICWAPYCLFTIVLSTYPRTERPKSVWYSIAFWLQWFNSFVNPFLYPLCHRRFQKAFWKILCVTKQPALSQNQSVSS
Sequence of Histamine H3 receptor (Rattus norvegicus, UniProt Q9QYN8) (Q9QYN8 whole entry): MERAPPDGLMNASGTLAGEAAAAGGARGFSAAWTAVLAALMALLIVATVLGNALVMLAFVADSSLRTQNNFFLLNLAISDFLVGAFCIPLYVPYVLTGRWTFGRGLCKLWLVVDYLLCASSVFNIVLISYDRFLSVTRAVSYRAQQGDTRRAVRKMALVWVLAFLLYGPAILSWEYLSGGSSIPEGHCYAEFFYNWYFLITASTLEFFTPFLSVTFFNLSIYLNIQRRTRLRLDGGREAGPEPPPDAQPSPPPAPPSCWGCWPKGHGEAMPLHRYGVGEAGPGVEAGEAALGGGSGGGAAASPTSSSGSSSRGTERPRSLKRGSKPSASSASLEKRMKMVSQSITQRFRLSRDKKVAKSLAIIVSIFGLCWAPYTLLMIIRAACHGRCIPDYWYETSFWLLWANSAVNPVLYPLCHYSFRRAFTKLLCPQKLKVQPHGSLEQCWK

Row | pKb [9] | pKb [12] | also measured | Compound
1 | 8.08 |  | Drug uptake [1]: 610 ng/mL; EC50 [2]: 245 nM; Efficacy [3]: 67%; EC50 [4]: 102 nM; Ki [5]: 41.7 nM; Ki [6]: 339 nM; Ki [7]: 933 nM; Ki [8]: 120 nM | N#Cc1ccc(-c2cc(N3CCNCC3)nc(N)n2)cc1
2 |  | 6.46 | Efficacy [10]: 82%; EC50 [11]: 178 nM | CN1CCN(c2cc(-n3cnc4ccccc43)nc(N)n2)CC1
3 | 7.81 | 7.27 |  | CN1CCN(c2cc(-c3cccc4ccccc34)nc(N)n2)CC1
4 | 6.77 | 6.47 |  | CN1CCN(c2cc(N(C)Cc3ccccc3)nc(N)n2)CC1
5 | 6.79 | 5.72 |  | CN1CCN(c2cc(-c3ccccc3-c3ccccc3)nc(N)n2)CC1
6 | 6.29 | 6.03 |  | CN1CCN(c2cc(-c3ccc(-c4ccccc4)cc3)nc(N)n2)CC1
7 | 6.85 | 6.38 |  | CN1CCN(c2cc(-c3cccc(-c4ccccc4)c3)nc(N)n2)CC1
8 |  |  | pKb [13]: 5.39; Efficacy [10]: 56%; EC50 [11]: 2340 nM | CN1CCN(c2cc(-c3ccc(C#N)cc3)cc(N)n2)CC1
9 | 5.53 | 4.54 |  | N#Cc1ccc(-c2cc(N3CCN(CC4CC4)CC3)nc(N)n2)cc1
10 | 5.68 | 5.74 |  | CN1CCN(c2cc(-n3cnc(-c4ccccc4)c3)nc(N)n2)CC1
11 | 5.69 | 5.29 |  | CN1CCN(c2nc(N)nc(-c3ccc(C#N)cc3)c2-c2ccccc2)CC1
